SMILES strings stand for the structures.

The results in this text go back to article PMC6161059 (ACS Central Science, 2018).

One assay concerns the target β2AR(1.19H4) (Homo sapiens, UniProt P07550, INS20HHHH). The experiment in a line: Fluorescence Ca2+ imaging. The format is cell-based. Particulars: 1 µM MAC(β2AR, O4), 5 µM U73122.
The target in a further assay is T1, M1R(1.18H4) (Homo sapiens, UniProt P11229).
T1 sequence (P11229 1-460): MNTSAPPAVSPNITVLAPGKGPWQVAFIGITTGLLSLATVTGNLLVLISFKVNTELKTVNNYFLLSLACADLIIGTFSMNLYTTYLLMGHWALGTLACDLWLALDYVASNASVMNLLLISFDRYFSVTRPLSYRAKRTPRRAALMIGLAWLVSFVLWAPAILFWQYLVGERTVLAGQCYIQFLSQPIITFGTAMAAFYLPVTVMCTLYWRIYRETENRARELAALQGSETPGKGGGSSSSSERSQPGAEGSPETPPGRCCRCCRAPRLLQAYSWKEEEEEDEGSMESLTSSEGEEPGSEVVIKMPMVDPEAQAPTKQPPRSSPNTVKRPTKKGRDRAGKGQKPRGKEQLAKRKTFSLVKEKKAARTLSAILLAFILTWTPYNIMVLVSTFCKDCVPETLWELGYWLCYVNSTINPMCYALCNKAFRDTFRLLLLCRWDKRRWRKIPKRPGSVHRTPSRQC
In kind it is cell-based. Particulars: CHO cells, 1 μM Ni–NTA.

Turning to `COc1ccc2c(c1)CC[C@@H]1[C@@H]2CC[C@]2(C)[C@@H](NCCCCCCN3C(=O)C=CC3=O)CC[C@@H]12` [U73122], the “MAC(β2AR, O4)-induced Ca2+ response in presence of PLC inhibitor” value on β2AR(1.19H4) is recorded as “no response was detected”. `C[N+](C)(C)CC#CCOC1=NOCC1` [iperoxo]: the “concentration–response on addition of Ni–NTA” value on M1R(1.18H4) is “unaffected”.
